Values of other authors, collected in patent EP1219700A1, “Cleaning compositions” (UNILEVER PLC, priority 2000, dated 2002).

Settings: at 20°C; other common materials, by contrast

Compound	Water Solubility (g/100g)
O=BO[O-].[Na+] [Sodium perborate anhydrous]	3.7
O=P(O)(O)OP(=O)(O)OP(=O)(O)O [Sodium tripolyphosphate anhydrous]	15
